Data from paper PMC3433420 (PLoS ONE, 2012).
Several values for one entry are separate records, joined by “and”; a condition that tells them apart may be missing. Identical values can stand only once. Like-named read-outs stand apart in the source and are kept apart here. Each block holds one compound with its values, some of them ahead of it. Residues, ends and D or L forms follow the SMILES beside them.

Key:
[1] = biological target: PIK3R2-NC tandem SH2 domains (Homo sapiens, UniProt O00459); experiment: FP saturation binding assay
SHC2-PTB domain = SHC2-PTB domain (Homo sapiens, UniProt P98077); experiment: FP saturation binding assay
PIK3R1-N SH2 domain [2] = biological target: T1, PIK3R1-N SH2 domain (Homo sapiens, UniProt P27986); experiment: biochemical; format: binding; settings: FP, PIK3R1-N; mean; NA = no interaction detected
T1 construct: thioredoxin; made in house; host or cells: E. coli BL21(DE3)pLysS

PIK3R3-C SH2 domain [3] = biological target: T2, PIK3R3-C SH2 domain (Homo sapiens, UniProt Q92569); experiment: biochemical; format: binding; settings: FP, PIK3R3-C; mean; NA = no interaction detected
T2 construct: thioredoxin; made in house; host or cells: E. coli BL21(DE3)pLysS

PIK3R3-C SH2 domain [4] = biological target: T2, PIK3R3-C SH2 domain; experiment: Surface plasmon resonance (Biacore 3000); format: binding; settings: SPR, NA = no interaction detected
Protocol: (§1) All SPR experiments were performed using Biacore 3000 (GE HealthCare, Piscataway, NJ) instrumentation. 6X His-tagged SH2 domain proteins were immobilized on a nitriloacetic acid (NTA) sensor chip (GE HealthCare, Piscataway, NJ) charged with Ni^2+ ions. Dye-free ErbB family peptides were applied to the sensor chip in a single flow cell in solution phase (while the other flow cell was used as a reference control) and binding events were measured under equilibrium conditions. FP false positive [drawing 7] (FPR), false discovery [drawing 8] (FDR), and false negative [drawing 9] (FNR) rates were calculated by defining true positives (TP) as interactions detected by both FP and SPR, true negatives (TN) as interactions detected by neither FP nor SPR; false positives as interactions identified by FP but not validated by SPR; and false negatives (FN) as interactions missed by FP but detected by SPR. Additional details for all methods are provided in the Supplementary Methods.
A randomly selected set of 12 recombinant SH2 domain proteins and unlabeled (rhodamine dye free) peptides (9 ErbB, 2 GAB1, 2 KIT, 2 MET) were generated for the surface plasmon resonance (SPR) validation study. The 6X His-tagged SH2 domain proteins used in the assay, PLCG1-C, SHC4, VAV2, TNS3, PIK3R3-C, SYK-C, PIK3R1-N, SUPT6H, CRKL, TEC, SHB, and SHC3 were produced and purified as previously described (see “SH2 and PTB domain proteins” section and Jones et al., 2006). Fresh protein stocks were generated so as to avoid bias incurred from proteins previously used in the FP assays. 13-mer peptides corresponding to ErbB1 pY801, ErbB1 pY900, ErbB1 pY978, ErbB1 pY1069, ErbB2 pY685, ErbB pY803, ErbB3 pY912, ErbB4 pY833, ErbB4 pY906, GAB1 pY183, GAB1 pY472, KIT pY570, KIT pY936, MET pY1093 and MET pY1313, were synthesized successfully for the assay using previously described approaches (see “FP competitor peptide synthesis” section). For SPR detection via the Biacore 3000 (GE HealthCare, Piscataway, NJ), His-tagged SH2 domains were immobilized on Biacore NTA sensor chips (GE HealthCare, Piscataway, NJ) pre-charged with Ni^2+ ions in one flow cell while the second served as a negative control reference cell. Peptides were introduced in solution phase to both cells and relative response units (RUs) were recorded from output sensograms. Nine concentrations of peptide and a buffer control, in duplicate, were used to determine KDs using the equilibrium method (best-fit simultaneous modeling for peptide association and disassociation curves).

PIK3R1-N SH2 domain [5] = biological target: T1, PIK3R1-N SH2 domain; experiment: Surface plasmon resonance (Biacore 3000); format: binding; settings: SPR, NA = no interaction detected
Protocol: as §1
(§2) Fresh protein stocks were generated so as to avoid bias incurred from proteins previously used in the FP assays. […]

RASA1-N SH2 domain [6] = biological target: T3, RASA1-N SH2 domain (Homo sapiens, UniProt P20936); experiment: FP saturation binding assay
T3 sequence (P20936 181-272 limits assumed): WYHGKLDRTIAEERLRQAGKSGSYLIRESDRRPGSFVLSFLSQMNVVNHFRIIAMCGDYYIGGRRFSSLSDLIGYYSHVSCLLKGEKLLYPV

RASA1-N SH2 domain [7] = biological target: T3, RASA1-N SH2 domain; experiment: FP competition assay; format: binding; design: 6X His; thioredoxin; made in house; host or cells: E. coli BL21(DE3)pLysS; settings: RASA1N, Fig. 3 graph A, read-out: Ki (obs)
Protocol: (§3) Unlabeled phosphopeptides were synthesized with some modifications to the previously described protocol. […] Unlabeled competitor peptides were prepared at 11 serial 1∶3 dilutions in assay buffer; one control with no unlabeled competitor peptides was also included with each experimental set. The fluorescent peptide, protein, and unlabeled peptide mixtures were allowed to incubate for a minimum of 20 minutes in 384-well plates and polarization signals were measured using the Analyst GT multimode reader as previously described above. Inhibition curves were constructed by four-parameter log-logistic regression using the “drc” package in R with the parameters for maximum and minimum fluorescence fixed according to Z’ factor positive and negative control values. IC50 values were estimated from these fits under a one-site competition binding model and Ki calculated according to the equation developed by.

GRB7 SH2 domain [8] = biological target: T4, GRB7 SH2 domain (Homo sapiens, UniProt Q14451); experiment: FP competition assay; format: binding; design: 6X His; thioredoxin; made in house; host or cells: E. coli BL21(DE3)pLysS; settings: labeled peptide ErbB3pY1197, Fig. 3 graph C, read-out: Ki (obs)
Protocol: as §3

GRB7 SH2 domain [9] = biological target: T4, GRB7 SH2 domain; experiment: FP saturation binding assay; settings: read-out: Ki ( exp FP); competing peptide, GRB7; Ki expected from FP; NI = no interaction
SRC SH2 domain = biological target: T5, SRC SH2 domain (Homo sapiens, UniProt P12931); experiment: FP competition assay; format: binding; settings: labeled peptide ErbB3pY1222, Fig. 3 graph B, read-out: Ki (obs)
T5 construct: between the c-Src SH2 domain and ErbB1 in our FP assay; 6X His; thioredoxin; made in house; host or cells: E. coli BL21(DE3)pLysS
Protocol: as §3

SHC3 SH2 domain [10] = biological target: T6, SHC3 SH2 domain (Homo sapiens, UniProt Q92529); experiment: FP saturation binding assay
TNS3 SH2 domain = biological target: T7, TNS3 SH2 domain (Homo sapiens, UniProt Q68CZ2); experiment: FP saturation binding assay
T7 sequence (Q68CZ2 1172-1282 limits assumed): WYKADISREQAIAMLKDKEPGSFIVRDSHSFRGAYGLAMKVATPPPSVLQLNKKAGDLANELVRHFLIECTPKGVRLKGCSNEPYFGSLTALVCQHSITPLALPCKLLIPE

SHC3 SH2 domain [11] = biological target: T6, SHC3 SH2 domain; experiment: Surface plasmon resonance (Biacore 3000); format: binding; design: A randomly selected set of 12 recombinant SH2 domain proteins; thioredoxin; made in house; host or cells: E. coli BL21(DE3)pLysS; settings: SPR, NA = no interaction detected
Protocol: as §1, §2

SH2 and PTB domains = experiment: In-house protein microarrays (with or without 5 mM DTT), protein named per line; format: binding, human; settings: in-house protein microarray, protein named in c0 of the line, sheet ErbB4 pY733 (18-mer)
Protocol: 300 pL of purified recombinant proteins and a thioredoxin tag control were spotted at a concentration of ∼40 µM in duplicate onto aldehyde-coated microscope slides (Erie Scientific Company, Portsmouth, NH) using a Nano-Plotter (NP) 2.1/E noncontact microarrayer (GeSiM, Munich, Germany). 16 identical microarrays per slide were printed in a 2×8 (column by row) format with distances of 9 mm between individual arrays; each array consisted of a 14×14 configuration of spots 400 µm apart. Following printing at a constant humidity level of 50%, slides were desiccated overnight and stored at −80°C. For peptide probing, array slides were transferred to 96-well microplates (TeleChem International, Inc., Sunnyvale, CA) and sandwiched with silicone gaskets. Prior to peptide addition, aldehyde sites were quenched with buffer B (20 mM HEPES, 100 mM KCl, 0.1% Tween-20, 5 mM DTT, pH 7.8) containing 1% bovine serum albumin (BSA) (w/v) for one hour at room temperature; moderate agitation was applied in a plate shaker (IKA, Germany) to displace glycerol from the surface area of protein sample spots. […] The arrays were subsequently washed once with 300 µL of buffer B and once with 300 µL of ddH2O. Residual water was removed by centrifugation; slides were stored under desiccation in the dark until analysis.
Microarray slides were scanned at a resolution of 10 µm using a GenePix 4000B microarray scanner and analyzed using GenePix Pro v6.0 software (Molecular Devices, Sunnyvale, CA). To independently visualize protein spots irrespective of peptide binding, samples were printed simultaneously with 400 nM of Cyanine-5 (Cy5) labeled bovine serum albumin (BSA). […] Following spot layout identification via Cy5 labeled BSA, the mean fluorescence intensity of rhodamine for duplicate protein spots was quantified and normalized by subtracting the corresponding mean fluorescence intensity of thioredoxin. Normalized fluorescence values were then imported into MATLAB and KDs determined as previously described.

T1 sequence (P27986 333-428 limits assumed): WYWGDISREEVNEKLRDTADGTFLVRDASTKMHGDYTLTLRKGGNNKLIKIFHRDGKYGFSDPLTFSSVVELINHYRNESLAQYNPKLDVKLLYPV
T6 sequence (Q92529 499-590 limits assumed): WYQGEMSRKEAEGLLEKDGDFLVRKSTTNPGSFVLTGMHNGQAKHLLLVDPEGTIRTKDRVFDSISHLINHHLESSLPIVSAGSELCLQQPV
T4 sequence (Q14451 431-527 limits assumed): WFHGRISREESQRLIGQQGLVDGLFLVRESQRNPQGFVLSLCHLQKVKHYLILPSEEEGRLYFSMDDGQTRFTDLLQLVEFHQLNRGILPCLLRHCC
PIK3R2-NC tandem SH2 domains, sequence (O00459 330-716 limits assumed): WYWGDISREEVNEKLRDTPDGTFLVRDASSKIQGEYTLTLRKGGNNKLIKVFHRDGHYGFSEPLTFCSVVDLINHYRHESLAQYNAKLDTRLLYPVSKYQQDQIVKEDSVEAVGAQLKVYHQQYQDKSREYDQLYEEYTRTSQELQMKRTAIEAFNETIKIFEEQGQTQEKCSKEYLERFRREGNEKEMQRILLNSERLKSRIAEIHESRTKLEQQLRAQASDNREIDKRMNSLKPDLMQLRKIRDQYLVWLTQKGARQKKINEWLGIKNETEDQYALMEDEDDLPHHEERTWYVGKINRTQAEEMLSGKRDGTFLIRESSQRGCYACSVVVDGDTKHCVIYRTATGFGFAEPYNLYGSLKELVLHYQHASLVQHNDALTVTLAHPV
T5 sequence (P12931 151-248 limits assumed): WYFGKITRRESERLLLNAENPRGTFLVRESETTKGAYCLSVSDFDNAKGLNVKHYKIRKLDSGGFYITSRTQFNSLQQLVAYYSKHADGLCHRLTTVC
SHC2-PTB domain, sequence (P98077 147-329 limits assumed): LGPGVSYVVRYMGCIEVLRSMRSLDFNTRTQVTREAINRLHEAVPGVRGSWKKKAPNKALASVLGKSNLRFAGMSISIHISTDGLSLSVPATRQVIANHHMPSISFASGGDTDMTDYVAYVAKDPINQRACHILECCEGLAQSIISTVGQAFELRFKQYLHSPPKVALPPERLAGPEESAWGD

Kd [1]: 6.93 µM | Kd (SHC2-PTB domain): 5.42 µM
Compound: CC(C)C[C@H](NC(=O)[C@H](CCC(=O)O)NC(=O)[C@H](Cc1c[nH]c2ccccc12)NC(=O)[C@@H](NC(=O)[C@@H](NC(=O)[C@@H](NC(=O)CNC(=O)[C@H](Cc1ccc(O)cc1)NC(=O)[C@H](CO)NC(=O)[C@H](Cc1c[nH]c2ccccc12)NC(=O)[C@@H](NC(=O)[C@@H](N)CC(=O)O)C(C)C)C(C)C)[C@@H](C)O)C(C)C)C(=O)N[C@@H](CC(=O)O)C(=O)O [ErbB1 Y900 (non-phospho)]

Compound: CC[C@H](C)[C@H](NC(=O)[C@@H](N)CCCCN)C(=O)N[C@@H](CCCNC(=N)N)C(=O)N[C@@H](CCCCN)C(=O)N[C@@H](Cc1ccc(OP(=O)(O)O)cc1)C(=O)N[C@H](C(=O)N[C@@H](CCSC)C(=O)N[C@@H](CCCNC(=N)N)C(=O)N[C@@H](CCCNC(=N)N)C(=O)N[C@@H](CC(C)C)C(=O)N[C@@H](CC(C)C)C(=O)N[C@@H](CCC(N)=O)C(=O)N[C@@H](CC(=O)O)C(=O)O)[C@@H](C)O [ErbB2 685] (HELM PEPTIDE1{K.I.R.K.[O=C([C@H](Cc1ccc(OP(=O)(O)O)cc1)N[*:1])[*:2]].T.M.R.R.L.L.Q.D}$$$$V2.0)
Kd (PIK3R1-N SH2 domain [2]): 2510 nM | Kd (PIK3R3-C SH2 domain [3]): 4.43 µM | Kd (PIK3R3-C SH2 domain [4]): 1520 nM | Kd (PIK3R1-N SH2 domain [5]): 13.4 µM

Compound: CC(C)C[C@H](NC(=O)[C@H](Cc1ccc(OP(=O)(O)O)cc1)NC(=O)[C@H](CCC(=O)O)NC(=O)[C@@H]1CCCN1C(=O)[C@H](CC(N)=O)NC(=O)[C@@H](N)CCC(=O)O)C(=O)N[C@H](C(=O)N1CCC[C@H]1C(=O)N[C@@H](CCC(N)=O)C(=O)NCC(=O)NCC(=O)N[C@@H](C)C(=O)N[C@@H](CC(=O)O)C(=O)O)[C@@H](C)O [ErbB2 pY1196]
Kd (RASA1-N SH2 domain [6]): 1860 nM | Ki (RASA1-N SH2 domain [7]; labeled peptide ErbB2pY1196): 2290 nM | Ki (RASA1-N SH2 domain [7]; labeled peptide ErbB3pY1307): 3540 nM | Ki (GRB7 SH2 domain [8]): 10.9 µM | Ki (GRB7 SH2 domain [9]): > 20 µM

Compound: CSCC[C@H](NC(=O)[C@H](Cc1ccc(O)cc1)NC(=O)[C@H](CCC(=O)O)NC(=O)[C@H](Cc1ccc(OP(=O)(O)O)cc1)NC(=O)CNC(=O)[C@H](CC(C)C)NC(=O)[C@H](CCC(=O)O)NC(=O)[C@@H](N)CCC(=O)O)C(=O)N[C@@H](CC(=O)O)C(=O)N[C@H](C(=O)NCC(=O)N[C@@H](CO)C(=O)N[C@@H](CC(=O)O)C(=O)O)C(C)C [ErbB3 pY1222] (HELM PEPTIDE1{E.E.L.G.[O=C([C@H](Cc1ccc(OP(=O)(O)O)cc1)N[*:1])[*:2]].E.Y.M.D.V.G.S.D}$$$$V2.0)
Ki (SRC SH2 domain): 2360 nM

Compound: CC[C@H](C)[C@H](NC(=O)[C@@H](NC(=O)[C@@H](NC(=O)CNC(=O)[C@H](Cc1ccc(OP(=O)(O)O)cc1)NC(=O)[C@H](CO)NC(=O)[C@H](Cc1c[nH]c2ccccc12)NC(=O)[C@@H](NC(=O)[C@@H](N)CC(=O)O)C(C)C)C(C)C)[C@@H](C)O)C(=O)N[C@@H](Cc1c[nH]c2ccccc12)C(=O)N[C@@H](CCC(=O)O)C(=O)N[C@@H](CC(C)C)C(=O)N[C@@H](CC(=O)O)C(=O)O [ErbB4 906] (HELM PEPTIDE1{D.V.W.S.[O=C([C@H](Cc1ccc(OP(=O)(O)O)cc1)N[*:1])[*:2]].G.V.T.I.W.E.L.D}$$$$V2.0)
Kd (PIK3R3-C SH2 domain [3]): 1.84 µM | Kd (SHC3 SH2 domain [10]): 540 nM | Kd (TNS3 SH2 domain): 800 nM | Kd (SHC3 SH2 domain [11]): 6.71 µM | Kd (PIK3R3-C SH2 domain [4]): 566 nM

Kd (SH2 and PTB domains; PM Assay Replicate # 39307, Array Fabrication # 39320): 800 nM and 400 nM | Kd (SH2 and PTB domains; PM Assay Replicate # 39334, Array Fabrication # 39329): 790 nM
Compound: LGSGAFGTVpYKGIWVPEd [ErbB4 pY733 (18-mer), N-terminally rhodamine-labeled 18-mer phosphopeptide]
